The values that follow come from patent US7244861B2, “Benzene compound and salt thereof” (Eisai Co., Ltd., priority 2001, dated 2007).

SMILES strings stand for the structures.

What all share (test): Measurement of transcriptional activity, GAL4-PPAR LBD chimera / PLAP reporter in CV-1 cells
Type in all cases: cell-based

Assay [1] addresses T1, PPAR γ (Homo sapiens, UniProt P37231).
T1 construct: 174–475 (PPAR) amino acid regions; expressed in transfected cells; host or cells: CV-1 (ATCC CCL-70)
T1 sequence (P37231 174-475 isoform P37231-2): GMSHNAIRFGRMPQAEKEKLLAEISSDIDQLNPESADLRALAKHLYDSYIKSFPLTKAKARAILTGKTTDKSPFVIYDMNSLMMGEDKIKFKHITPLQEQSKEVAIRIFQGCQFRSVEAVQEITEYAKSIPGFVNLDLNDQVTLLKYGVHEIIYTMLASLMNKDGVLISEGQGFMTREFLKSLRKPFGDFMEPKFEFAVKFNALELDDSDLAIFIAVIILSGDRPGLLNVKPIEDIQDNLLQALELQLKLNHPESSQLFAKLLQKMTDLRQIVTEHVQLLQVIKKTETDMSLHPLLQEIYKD
The note with it: PLAP activity secreted 24 hours after addition of the compound, read-out: Transcriptional activities EC50 PPAR γ. From the text:
(§1) Measurement of Transcriptional Activity
(§2) A GAL4-PPAR LBD chimera expression vector was constructed by ligating human PPAR 167–468 (PPAR), 138–440 (NUC-1) and 174–475 (PPAR) amino acid regions (LBD: Ligand Binding Domain) to a yeast transcriptional factor GAL4 1–147 amino acid region. As the reporter gene, PLAP (Placental Alkaline Phosphatase) was used, and this was ligated downstream of a TK promoter containing a 5-copy GAL4 DNA binding element to construct a vector. As host cells, CV-1 (ATCC CCL-70) was used. That is, CV-1 cells were spread at a density of 5×10^5 cells on a 35-mm dish and cultured in 10% FCS/DMEM for 24 hours, and using FuGENE 6 transfection reagent, the cells were co-transfected with the GAL4-PPAR LBD expression vector and GAL4 DBD-TK-PLAP expression vector. 24 hours after this transfection, the cells were spread again on a 96-well plate at a density of 1×10^4/well and further cultured for 24 hours. After 24 hours, the medium was exchanged with DMEM containing 10% FCS, which was previously treated at 65° C. for inactivating intrinsic alkaline phosphatase, and a test compound was added at an arbitrary concentration. The transcriptional activity was determined in terms of PLAP activity secreted 24 hours after addition of the compound, to calculate EC50. The PLAP activity was determined after adding 50 μl assay buffer and 50 μl chemoluminescence substrate to 10 μl culture supernatant and incubating the mixture at room temperature for 1 hour. The transcriptional activities for PPARα, PPARβ(δ) and PPARγ are shown respectively in Table 1.

The target of assay [2] is T2, PPAR α (Homo sapiens, UniProt Q07869).
T2 construct: human PPAR 167–468 (PPAR); expressed in transfected cells; host or cells: CV-1 (ATCC CCL-70)
T2 sequence (Q07869 167-468): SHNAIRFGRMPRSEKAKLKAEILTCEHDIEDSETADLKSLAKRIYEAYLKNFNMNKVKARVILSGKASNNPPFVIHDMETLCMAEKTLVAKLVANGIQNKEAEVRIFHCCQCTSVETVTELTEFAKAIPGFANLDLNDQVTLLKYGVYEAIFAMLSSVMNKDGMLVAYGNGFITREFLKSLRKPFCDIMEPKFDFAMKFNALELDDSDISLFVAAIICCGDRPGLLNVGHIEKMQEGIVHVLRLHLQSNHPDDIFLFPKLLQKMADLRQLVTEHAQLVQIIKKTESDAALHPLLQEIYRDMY
As to conditions: PLAP activity secreted 24 hours after addition of the compound, read-out: Transcriptional activities EC50 PPAR α.
From the text: as §1, §2

In assay [3] the target is T3, PPAR β (Homo sapiens, UniProt Q03181).
T3 construct: 138–440 (NUC-1); expressed in transfected cells; host or cells: CV-1 (ATCC CCL-70)
T3 sequence (Q03181 138-440): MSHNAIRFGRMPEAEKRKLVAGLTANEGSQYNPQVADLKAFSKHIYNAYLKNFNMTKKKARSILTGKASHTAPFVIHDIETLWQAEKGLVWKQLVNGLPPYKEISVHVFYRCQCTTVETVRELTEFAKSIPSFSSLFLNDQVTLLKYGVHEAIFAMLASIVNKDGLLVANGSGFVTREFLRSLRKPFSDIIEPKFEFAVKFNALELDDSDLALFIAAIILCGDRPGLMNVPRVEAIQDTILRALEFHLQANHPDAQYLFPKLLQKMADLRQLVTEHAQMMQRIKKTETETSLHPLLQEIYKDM
As to conditions: PLAP activity secreted 24 hours after addition of the compound, read-out: Transcriptional activities EC50 PPAR β.
From the text: as §1, §2

Consider `COc1ccc(CC(OC(C)C)C(=O)O)c(OC)c1CNC(=O)c1ccc(OC2CCCC2)cc1Cl` (stereo not drawn) [Example 11, 3-(3-[(2-Chloro-4-cyclopentyloxybenzoyl)amino]methyl-2,4-dimethoxyphenyl)-2-isopropoxypropionic acid], for which the EC50 was found to be 5.8 nM in assay [1], 10.8 nM in assay [2] and 1000 nM in assay [3].
With `CC(C)OC(Cc1cc(CNC(=O)c2ccc(C(F)(F)F)cc2F)c2occc2c1)C(=O)O` (stereo not drawn) [Example 35], the figures for the EC50 in assay [1], in assay [2] and in assay [3] were 52.4 nM, 66.5 nM and 483 nM, respectively.
For the molecule `CC(C)Oc1ccc(C(=O)NCc2cc(CC(OC(C)C)C(=O)O)cc3c2OCC3)c(Cl)c1` (stereo not drawn) [Example 42, 3-(7-[(2-Chloro-4-isopropoxybenzoyl)amino]methyl-2,3-dihydrobenzo[b]furan-5-yl)-2-isopropoxypropionic acid], the EC50 in assay [1] came to 3.4 nM; in assay [2], 17.9 nM; in assay [3], 1600 nM.

A word on the EC50: it is the concentration at which the effect is half-maximal.
